For the test, the target named is TNFα (Homo sapiens (Human), UniProt P01375). As to the kind of experiment: TNF induced HEK-Blue assay. Type of test: cell-based. Conditions: TNFα 0.5 ng/ml; HEK-Blue-CD40L cells, NF-κB-driven secreted alkaline phosphatase reporter; 18 h. Here is the method:
Test compounds serially diluted in DMSO were plated in an assay plate (Labcyte, Cat. #LP-0200) at final concentrations ranging from 0.004 μM to 25 μM. TNFα (final concentration 0.5 ng/ml) or CD40L (final concentration 30 ng/ml) in assay buffer [DMEM, 4.5 g/l glucose (Gibco, Cat. 21063-029), 10% FBS (Sigma, F4135), 1% Penicillin-Streptomycin (Gibco, Cat. 15140-122), 1% Anti-Anti (Gibco, Cat. 15240-112) and 2 mM L-glutamine (Gibco, Cat. 25030-081)] was then added to the assay plate. After a 30 minute pre-incubation at 37° C. and 5% CO2, HEK-Blue-CD40L cells (InvivoGen, Cat. Code hkb-cd40) containing a NF-κB-driven secreted alkaline phosphatase reporter gene were seeded into the assay plate at a density of 20,000 cells per well. This plate was then incubated for 18 h at 37° C. and 5% CO2. Secreted alkaline phosphatase expression was measured using QUANTI-Blue (InvivoGen, Cat. Code rep-qb1) according to manufacturer's specifications and the assay plate was read on a PerkinElmer Envision at 620 nm.
Inhibition data for the test compound over a range of concentrations was plotted as percentage inhibition of the test compound (100%=maximum inhibition). IC50 values were determined after correcting for background [(sample read−mean of low control)/(mean of high control−mean of low control)] where by the low control is DMSO without stimulation and high control is DMSO with stimulation. The IC50 is defined as the concentration of test compound which produces 50% inhibition and was quantified using the 4 parameter logistic equation to fit the data.
Table 5 lists the IC50 values measured in the TNF induced HEK-Blue assay for Examples 1 to 40 of this invention.

The values that follow come from patent publication US10189840B2, “Substituted tricyclic heterocyclic compounds” (BRISTOL-MYERS SQUIBB COMPANY, priority 2015, dated 2019).

As usually defined, the IC50 is the concentration at which inhibition is half-maximal. The low end stands for higher potency, the high end for lower potency.

Sequence of TNFα (P01375 77-233): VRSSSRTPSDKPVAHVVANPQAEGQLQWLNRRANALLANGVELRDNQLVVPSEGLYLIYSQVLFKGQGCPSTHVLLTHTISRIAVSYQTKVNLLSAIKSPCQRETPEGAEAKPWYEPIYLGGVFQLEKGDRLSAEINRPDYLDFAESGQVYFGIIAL

Molecule `CC(C)(O)c1ccc(-c2ccc3nc4n(c3n2)C(c2ccccc2OC(F)F)CC4F)cc1` (stereo not shown) [Example 15 (DM), 2-(4-(8-(2-(difluoromethoxy)phenyl)-6-fluoro-7,8-dihydro-6H-pyrrolo[2′,1′:2,3]imidazo[4,5-b]pyridin-2-yl)phenyl)propan-2-ol] gave a concentration for half-maximal inhibition (IC50) of under 1 µM. In turn, `Cc1ccc(C)c(C2CC(O)c3nc4ccc(-c5cnc(N6CCOCC6)nc5)nc4n32)c1` (stereo not shown) [Example 6 (DM), 8-(2,5-dimethylphenyl)-2-(2-morpholinopyrimidin-5-yl)-7,8-dihydro-6H-pyrrolo[2′,1′:2,3]imidazo[4,5-b]pyridin-6-ol] returned a half-maximal inhibitory concentration (IC50) of under 1 µM. As to `CC(C)(O)c1ccc(-c2ccc3nc4n(c3n2)C(c2ccccc2OC(F)F)CC4)cc1` (racemic) [Example 26 (rac), 2-(4-(8-(2-(difluoromethoxy)phenyl)-7,8-dihydro-6H-pyrrolo[2′,1′:2,3]imidazo[4,5-b]pyridin-2-yl)phenyl)propan-2-ol], the 50% inhibitory concentration (IC50) is under 1 µM. `FC(F)Oc1ccccc1C1CC(F)c2nc3ccc(-c4cnc(N5CCOCC5)nc4)nc3n21` (stereo not shown) [Example 17 (DM), 4-(5-(8-(2-(difluoromethoxy)phenyl)-6-fluoro-7,8-dihydro-6H-pyrrolo[2′,1′:2,3]imidazo[4,5-b]pyridin-2-yl)pyrimidin-2-yl)morpholine] gave an IC50 of under 1 µM.

`CC(C)(O)c1ccc(-c2ccc3nc4n(c3n2)C(c2ccccc2C(F)(F)F)CC4F)cc1` (single isomer, unassigned) [Example 14 (e2), 2-(4-(6-Fluoro-8-(2-(trifluoromethyl)phenyl)-7,8-dihydro-6H-pyrrolo[2′,1′:2,3]imidazo[4,5-b]pyridin-2-yl)phenyl)propan-2-ol] returned a half-inhibitory concentration (IC50) of under 1 µM. Turning to `CC(C)(O)c1ccc(-c2ccc3nc4n(c3n2)C(c2ccccc2C2CC2)CC4F)cc1` (single isomer, unassigned) [Example 21 (e1), 2-(4-(8-(2-cyclopropylphenyl)-6-fluoro-7,8-dihydro-6H-pyrrolo[2′,1′:2,3]imidazo[4,5-b]pyridin-2-yl)phenyl)propan-2-ol], the IC50 was under 1 µM.

For the molecule `CC(C)(O)c1ccc(-c2ccc3nc4n(c3n2)C(c2ccccc2C(F)(F)F)CC4F)cc1` (single isomer, unassigned) [Example 14 (e4), 2-(4-(6-Fluoro-8-(2-(trifluoromethyl)phenyl)-7,8-dihydro-6H-pyrrolo[2′,1′:2,3]imidazo[4,5-b]pyridin-2-yl)phenyl)propan-2-ol], the IC50 was under 1 µM.

Molecule `Cc1ccc(C)c([C@H]2CCc3nc4ccc(-c5ccc(N6CCN(C)CC6)cc5)nc4n32)c1` [Example 38, (R)-8-(2,5-dimethylphenyl)-2-(4-(4-methylpiperazin-1-yl)phenyl)-7,8-dihydro-6H-pyrrolo[2′,1′:2,3]imidazo[4,5-b]pyridine] came in with an IC50 of 1 to 10 µM. `CC(C)(O)c1ccc(-c2ccc3nc4n(c3n2)C(c2ccccc2C2CC2)CC4F)cc1` (single isomer, unassigned) [Example 21 (e2), 2-(4-(8-(2-cyclopropylphenyl)-6-fluoro-7,8-dihydro-6H-pyrrolo[2′,1′:2,3]imidazo[4,5-b]pyridin-2-yl)phenyl)propan-2-ol] had a 50% inhibitory concentration (IC50) of 1 to 10 µM.

In turn, `COc1ccc(-c2ccc3nc4n(c3n2)C(c2ccccc2OC(F)F)CC4F)cn1` (single isomer, unassigned) [Example 18 (e2), 8-(2-(difluoromethoxy)phenyl)-6-fluoro-2-(6-methoxypyridin-3-yl)-7,8-dihydro-6H-pyrrolo[2′,1′:2,3]imidazo[4,5-b]pyridine] came in with a half-inhibitory concentration (IC50) of 10 to 25 µM.

`CC(C)(O)c1ncc(-c2ccc3nc4n(c3n2)C(c2ccccc2OC(F)F)CC4F)cn1` (stereo not shown) [Example 16 (e2), 2-(5-(8-(2-(difluoromethoxy)phenyl)-6-fluoro-7,8-dihydro-6H-pyrrolo[2′,1′:2,3]imidazo[4,5-b]pyridin-2-yl)pyrimidin-2-yl)propan-2-ol] yielded a half-inhibitory concentration (IC50) of under 1 µM. As for `COc1ccccc1C1CC(O)c2nc3ccc(-c4ccc(C(C)(C)O)cc4)nc3n21` (single isomer, unassigned) [Example 12 (e4), 2-(4-(2-hydroxypropan-2-yl)phenyl)-8-(2-methoxyphenyl)-7,8-dihydro-6H-pyrrolo[2′,1′:2,3]imidazo[4,5-b]pyridin-6-ol], the figure is 1 to 10 µM; as for `FC(F)Oc1ccccc1C1CCc2nc3ccc(-c4cnc(N5CCOCC5)nc4)nc3n21` (racemic) [Example 28 (rac), 4-(5-(8-(2-(difluoromethoxy)phenyl)-7,8-dihydro-6H-pyrrolo[2′,1′:2,3]imidazo[4,5-b]pyridin-2-yl)pyrimidin-2-yl)morpholine], under 1 µM; as for `Cc1ccc(C)c(C2CC(O)c3nc4ccc(-c5cnc(C(C)(C)O)nc5)nc4n32)c1` (stereo not shown) [Example 5 (DM), 8-(2,5-dimethylphenyl)-2-(2-(2-hydroxypropan-2-yl)pyrimidin-5-yl)-7,8-dihydro-6H-pyrrolo[2′,1′:2,3]imidazo[4,5-b]pyridin-6-ol], under 1 µM. Take `CC(C)(O)c1ccc(-c2ccc3nc4n(c3n2)C(c2ccccc2OC(F)F)CC4)cc1` (single isomer, unassigned) [Example 26 (e2), 2-(4-(8-(2-(difluoromethoxy)phenyl)-7,8-dihydro-6H-pyrrolo[2′,1′:2,3]imidazo[4,5-b]pyridin-2-yl)phenyl)propan-2-ol]: the half-inhibitory concentration (IC50) lay within 10 to 25 µM.

`CC(C)(O)c1ccc(-c2ccc3nc4n(c3n2)C(c2cc(F)ccc2C(F)(F)F)CC4)cc1` (single isomer, unassigned) [Example 34 (e2), 2-(4-(8-(5-fluoro-2-(trifluoromethyl)phenyl)-7,8-dihydro-6H-pyrrolo[2′,1′:2,3]imidazo[4,5-b]pyridin-2-yl)phenyl)propan-2-ol] displayed an IC50 of 1 to 10 µM. With `CC(C)(O)c1ccc(-c2ccc3nc4n(c3n2)C(c2ccccc2OC(F)(F)F)CC4F)cc1` (single isomer, unassigned) [Example 22 (e1), 2-(4-(6-fluoro-8-(2-(trifluoromethoxy)phenyl)-7,8-dihydro-6H-pyrrolo[2′,1′:2,3]imidazo[4,5-b]pyridin-2-yl)phenyl)propan-2-ol] the figure was under 1 µM; with `CC(C)(O)c1ccc(-c2ccc3nc4n(c3n2)C(c2ccccc2C2CC2)CC4)cc1` (single isomer, unassigned) [Example 33 (e1), 2-(4-(8-(2-cyclopropylphenyl)-7,8-dihydro-6H-pyrrolo[2′,1′:2,3]imidazo[4,5-b]pyridin-2-yl)phenyl)propan-2-ol], under 1 µM. The molecule `COc1ccccc1C1CCc2nc3ccc(-c4ccc(C(C)(C)O)cc4)nc3n21` (stereo not shown) [Example 31 (e1), 2-(4-(8-(2-methoxyphenyl)-7,8-dihydro-6H-pyrrolo[2′,1′:2,3]imidazo[4,5-b]pyridin-2-yl)phenyl)propan-2-ol] showed an IC50 of under 1 µM. On to `CC(C)(O)c1ncc(-c2ccc3nc4n(c3n2)C(c2ccccc2OC(F)F)CC4O)cn1` (stereo not shown) [Example 11 (e1), 8-(2-(difluoromethoxy)phenyl)-2-(2-(2-hydroxypropan-2-yl)pyrimidin-5-yl)-7,8-dihydro-6H-pyrrolo[2′,1′:2,3]imidazo[4,5-b]pyridin-6-ol], for which the IC50 was under 1 µM. In the case of `CC(C)(O)c1ccc(-c2ccc3nc4n(c3n2)C(c2ccccc2C2CC2)CC4O)cc1` (single isomer, unassigned) [Example 9 (e4), 8-(2-cyclopropylphenyl)-2-(4-(2-hydroxypropan-2-yl)phenyl)-7,8-dihydro-6H-pyrrolo[2′,1′:2,3]imidazo[4,5-b]pyridin-6-ol], the IC50 lay in the range of 1 to 10 µM.

`CC(C)(O)c1ccc(-c2ccc3nc4n(c3n2)C(c2cc(F)ccc2C(F)(F)F)CC4O)cc1` (single isomer, unassigned) [Example 13 (e4), 8-(5-fluoro-2-(trifluoromethyl)phenyl)-2-(4-(2-hydroxypropan-2-yl)phenyl)-7,8-dihydro-6H-pyrrolo[2′,1′:2,3]imidazo[4,5-b]pyridin-6-ol] displayed a half-maximal inhibitory concentration (IC50) of 1 to 10 µM. In turn, `CC(C)(O)c1ccc(-c2ccc3nc4n(c3n2)C(c2ccccc2C(F)(F)F)CC4F)cc1` (single isomer, unassigned) [Example 14 (e3), 2-(4-(6-Fluoro-8-(2-(trifluoromethyl)phenyl)-7,8-dihydro-6H-pyrrolo[2′,1′:2,3]imidazo[4,5-b]pyridin-2-yl)phenyl)propan-2-ol] showed an IC50 of 1 to 10 µM. Consider `COc1ccc(-c2ccc3nc4n(c3n2)[C@@H](c2cc(C)ccc2C)CC4)cn1` [Example 39, (R)-8-(2,5-dimethylphenyl)-2-(6-methoxypyridin-3-yl)-7,8-dihydro-6H-pyrrolo[2′,1′:2,3]imidazo[4,5-b]pyridine], for which the IC50 lay in the range of 1 to 10 µM. On to `Cc1ccc(C)c([C@H]2CCc3nc4ccc(-c5ccc(C(C)(C)O)cc5)nc4n32)c1` [Example 37, (R)-2-(4-(8-(2,5-dimethylphenyl)-7,8-dihydro-6H-pyrrolo[2′,1′:2,3]imidazo[4,5-b]pyridin-2-yl)phenyl)propan-2-ol], for which the 50% inhibitory concentration (IC50) is under 1 µM.
